Drawing on US9266832B2, “Compounds for the treatment of neurodegenerative diseases” (Katholieke Universiteit Levun, priority 2010, dated 2016), this text covers EC50 for 33 compounds.

Structures are written as SMILES. pEC50: −log10 of the molar value.

The subject of the test is M17-TAU P301L cells. The test can be described thus: Tau-induced toxicity experiment: LDH leakage of retinoic acid incubated M17-TAU P301L cells. Format: cell-based. To be noted: Homo sapiens, Neuroblastoma cell, 168 h; reduction of LDH activity of retinoic acid incubated M17-TAU P301L neuroblastoma cells, 7 days. From the text: A TAU expression plasmid was constructed by sub-cloning the cDNA of human TAU-P301L (encoding for TAU with proline 301 substituted by a leucine residue) into mammalian expression vector pcDNA3.1 resulting in plasmid pcDNA3.1-TAU P301L. Plasmids pcDNA3.1 and pcDNA3.1-TAU P301L were transfected to human neuroblastoma cells ([…]; ATCC No. CRL-2267) and independent clonal lines with the plasmids stably integrated into the genome were selected. […] Expression of the TAU P301L genes in the cell lines was confirmed by Western analysis.
In degenerated or dead cells lactate dehydrogenase (LDH) is leaked out of the cells into the extracellular environment due to a loss of plasma-membrane integrity. This principle was used to determine cytotoxicity by quantifying the level of leaked LDH into the growth medium.
The detailed method for determining TAU cytotoxicity was as follows: From appropriate precultures of M17-3.1 and M17-TAU(P301L) cells were seeded at 2500 cells/cm2 in Optimem Reduced Serum without phenol red (Gibco, Cat. 31985-047) supplemented with 1% fetal calf serum, 1 mM sodium pyruvate, 1× non-essential amino acids, 500 μg/ml G418 0.5× antibiotic/antimycotic. After 3 h of incubation at 37° C./5% CO2 1 volume of Optimem Reduced Serum (same as described above; except without fetal calf serum) supplemented with 2.5 μM retinoic acid (RA) was added. The cells were further incubated for 7 days. Subsequently, LDH activity was determined using Promega Cytotox 96 Non-Radioactive cytotoxicity assay, (Cat. G1780) according the supplier's instructions.
The M17-TAU P301L cell line made it possible to assess the ability of novel compounds to counteract TAU cytotoxicity. […] These measurements were used to calculate EC50 values of table 2.
A general note: LDH in the medium is a marker of cell lysis.
For `O=C(NCCc1c[nH]c2ccc(Cl)cc12)c1ccc(Cc2cccs2)cc1` [Cpd079, N-(2-(5-chloro-1H-indol-3-yl)ethyl)-4-(thiophen-2-ylmethyl)benzamide], the pEC50 (commonly the EC50 on a negative log10 scale, so that one unit is a factor of ten) was 7.09.
Consider `O=C(NCCc1c[nH]c2ccc(Cl)cc12)c1ccc(Cc2ccsc2)cc1` [Cpd080, N-(2-(5-chloro-1H-indol-3-yl)ethyl)-4-(thiophen-3-ylmethyl)benzamide], for which the pEC50 was 7.74.
The value for `O=C(NCCc1c[nH]c2ccc(Cl)cc12)c1ccc(Cc2ccoc2)cc1` [Cpd081, N-(2-(5-chloro-1H-indol-3-yl)ethyl)-4-(furan-3-ylmethyl)benzamide] was 7.64; that for `O=C(NCCc1c[nH]c2ccc(F)cc12)c1cccc(Cc2cccc(F)c2)c1` [Cpd082, N-(2-(5-fluoro-1H-indol-3-yl)ethyl)-3-(3-fluorobenzyl)benzamide] was 6.95.
The value for `O=C(NCCc1c[nH]c2ccc(Cl)cc12)c1cccc(Cc2ccoc2)c1` [Cpd083, N-(2-(5-chloro-1H-indol-3-yl)ethyl)-3-(furan-3-ylmethyl)benzamide] was 7.25; that for `Cc1ccc2[nH]cc(CCNC(=O)c3ccc(Cc4cccc(F)c4)cc3)c2c1` [Cpd084, 4-(3-fluorobenzyl)-N-(2-(5-methyl-1H-indol-3-yl)ethyl)benzamide] was 7.59; that for `O=C(NCCc1c[nH]c2ccc(Cl)cc12)c1ccc(Cc2cccnc2)cc1` [Cpd085, N-(2-(5-chloro-1H-indol-3-yl)ethyl)-4-(pyridin-3-ylmethyl)benzamide] was 6.93.
The value for `O=C(NCCc1c[nH]c2ccc(Cl)cc12)c1ccc(Cc2ccncc2)cc1` [Cpd086, N-(2-(5-chloro-1H-indol-3-yl)ethyl)-4-(pyridin-4-ylmethyl)benzamide] was 6.82.
Take `O=C(NCCc1c[nH]c2ccc(Cl)cc12)c1ccc(Cc2ccco2)cc1` [Cpd087, N-(2-(5-chloro-1H-indol-3-yl)ethyl)-4-(furan-2-ylmethyl)benzamide]: the pEC50 was 6.88.
The value for `COc1cccc(Oc2cccc(C(=O)NCCc3c[nH]c4ccc(Cl)cc34)c2)c1` [Cpd089, N-(2-(5-chloro-1H-indol-3-yl)ethyl)-3-(3-methoxyphenoxy)benzamide] was 7.01; that for `Cc1cccc(Oc2cccc(C(=O)NCCc3c[nH]c4ccc(Cl)cc34)c2)c1` [Cpd090, N-(2-(5-chloro-1H-indol-3-yl)ethyl)-3-(m-tolyloxy)benzamide] was 7.04.
For `Cn1cc(CCNC(=O)c2ccc(Cc3cccc(F)c3)cc2)c2cc(Cl)ccc21` [Cpd091, N-(2-(5-chloro-1-methyl-1H-indol-3-yl)ethyl)-4-(3-fluorobenzyl)benzamide] the value was 6.24; for `O=C(NCCc1c[nH]c2ccc(Cl)cc12)c1ccc(Nc2ccccc2)cc1` [Cpd092, N-(2-(5-chloro-1H-indol-3-yl)ethyl)-4-(phenylamino)benzamide], 7.12.
In the case of `O=C(NCCc1c[nH]c2ccc(Cl)cc12)c1ccc(Oc2ccccc2)cc1` [Cpd093, N-(2-(5-chloro-1H-indol-3-yl)ethyl)-4-phenoxybenzamide], the pEC50 was 6.53.
The value for `O=C(NCCc1c[nH]c2ccc(Cl)cc12)c1cccc(Nc2ccccc2)c1` [Cpd094, N-(2-(5-chloro-1H-indol-3-yl)ethyl)-3-(phenylamino)benzamide] was 6.79.
The value for `O=C(NCCc1c[nH]c2ccc(Cl)cc12)c1cccc(Oc2ccccc2)c1` [Cpd095, N-(2-(5-chloro-1H-indol-3-yl)ethyl)-3-phenoxybenzamide] was 6.62; that for `CN(c1ccccc1)c1ccc(C(=O)NCCc2c[nH]c3ccc(Cl)cc23)cc1` [Cpd096, N-(2-(5-chloro-1H-indol-3-yl)ethyl)-4-(methyl(phenyl)amino)benzamide] was 6.33.
The value for `CN(c1ccccc1)c1cccc(C(=O)NCCc2c[nH]c3ccc(Cl)cc23)c1` [Cpd097, N-(2-(5-chloro-1H-indol-3-yl)ethyl)-3-(methyl(phenyl)amino)benzamide] was 6.57; that for `Cc1[nH]c2ccc(Cl)cc2c1CCNC(=O)c1ccc(Cc2cccc(F)c2)cc1` [Cpd098, N-(2-(5-chloro-2-methyl-1H-indol-3-yl)ethyl)-4-(3-fluorobenzyl)benzamide] was 6.27.
Turning to `O=C(NCCc1c[nH]c2ccc(Cl)cc12)c1ccc(Cc2cccc(F)c2)cc1F` [Cpd099, N-(2-(5-chloro-1H-indol-3-yl)ethyl)-2-fluoro-4-(3-fluorobenzyl)benzamide], the pEC50 was 7.57.
For `O=C(NCCc1c[nH]c2ccc(Cl)cc12)c1ccc(Cc2cccc(F)c2)c(F)c1` [Cpd100, N-(2-(5-chloro-1H-indol-3-yl)ethyl)-3-fluoro-4-(3-fluorobenzyl)benzamide] the value was 7.36; for `O=C(NCCc1c[nH]c2ncc(Cl)cc12)c1ccc(Cc2cccc(F)c2)cc1` [Cpd101, N-(2-(5-chloro-1H-pyrrolo[2,3-b]pyridin-3-yl)ethyl)-4-(3-fluorobenzyl)benzamide], 5.98; for `O=C(NCCc1c[nH]c2ccc(Cl)cc12)c1ccc(Cc2cc(F)ccc2F)cc1` [Cpd102, N-(2-(5-chloro-1H-indol-3-yl)ethyl)-4-(2,5-difluorobenzyl)benzamide], 7.31.
For `O=C(NCCc1c[nH]c2ccc(Cl)cc12)c1ccc(Cc2cccc(F)c2F)cc1` [Cpd103, N-(2-(5-chloro-1H-indol-3-yl)ethyl)-4-(2,3-difluorobenzyl)benzamide] the value was 6.86; for `CN(c1ccc(C(=O)NCCc2c[nH]c3ccc(Cl)cc23)cc1)c1cccc(F)c1` [Cpd104, N-(2-(5-chloro-1H-indol-3-yl)ethyl)-4-((3-fluorophenyl)(methyl)amino)benzamide], 6.58; for `O=C(NCCc1c[nH]c2ccc(Cl)cc12)c1ccc(Oc2cccc(F)c2)cc1` [Cpd105, N-(2-(5-chloro-1H-indol-3-yl)ethyl)-4-(3-fluorophenoxy)benzamide], 6.95.
For `O=C(NCCc1c[nH]c2ccc(Cl)cc12)c1ccc(Nc2cccc(F)c2)cc1` [Cpd106, N-(2-(5-chloro-1H-indol-3-yl)ethyl)-4-(3-fluorophenylamino)benzamide], the pEC50 was 7.09.
The value for `O=C(NCCc1c[nH]c2ccc(Cl)cc12)c1ccc(Cc2cccc(F)c2)cn1` [Cpd107, N-(2-(5-chloro-1H-indol-3-yl)ethyl)-5-(3-fluorobenzyl)picolinamide] was 7.59.
For `O=C(NCCc1c[nH]c2ccc(C(F)(F)F)cc12)c1ccc(Cc2cccc(F)c2)cc1` [Cpd108, 4-(3-fluorobenzyl)-N-(2-(5-(trifluoromethyl)-1H-indol-3-yl)ethyl)benzamide] the value was 6.49.
For `O=C(NCCc1c[nH]c2ccc(-c3ccccc3)cc12)c1ccc(Cc2cccc(F)c2)cc1` [Cpd111, 4-(3-fluorobenzyl)-N-(2-(5-phenyl-1H-indol-3-yl)ethyl)benzamide] the value was 6.27; for `N#Cc1ccc2[nH]cc(CCNC(=O)c3ccc(Cc4cccc(F)c4)cc3)c2c1` [Cpd115, N-(2-(5-cyano-1H-indol-3-yl)ethyl)-4-(3-fluorobenzyl)benzamide], 7.12.
Regarding `O=C(NCCc1c[nH]c2ccc(N3CCOCC3)cc12)c1ccc(Cc2cccc(F)c2)cc1` [Cpd116, 4-(3-fluorobenzyl)-N-(2-(5-morpholino-1H-indol-3-yl)ethyl)benzamide], the pEC50 is 6.78.
As to `O=C(NCCc1c[nH]c2ccc(Cl)cc12)c1cccc(Cc2cccc(F)c2)n1` [Cpd117, N-(2-(5-chloro-1H-indol-3-yl)ethyl)-6-(3-fluorobenzyl)picolinamide], the pEC50 is 6.96.
